Reference: patent publication US20260048052A1, “METHODS OF TREATING TENOSYNOVIAL GIANT CELL TUMORS” (Deciphera Pharmaceuticals, LLC, priority 2023, published 2026)
Where “and” joins values, the source holds several entries; their conditions need not be identical. Equal entries are not always repeated.

What was measured:
[1] = system: patients with TGCT not amenable to surgery; experiment: Phase 3, randomized, placebo-controlled, double-blind study of vimseltinib in patients with TGCT: efficacy; assay type: in vivo, human
Description: (§1) This study is a two-part, randomized, double-blind, placebo-controlled study to assess the efficacy and safety of vimseltinib in patients with TGCT not amenable to surgery with no prior anti-CSF1/CSF1R therapy (prior therapy with imatinib or nilotinib allowed). In Part 1, patients (n=123) were randomized two-to-one to receive either 30 mg twice weekly of vimseltinib (n=83) or placebo (n=40) for 24 weeks. Vimseltinib or matching placebo was administered orally each week on day 1 and day 5 (±1 day) at approximately the same time of day on an empty stomach, with ≥24 hours between doses. An MRI of the affected joint was performed at screening, cycle 4 day 1 (week 13; ±7 days), and at the end of Part 1. Part 2 is an ongoing open-label study, in which patients from both the vimseltinib and placebo arms receive treatment with vimseltinib.
(§2) The primary endpoint of the study is the objective response rate (ORR) at Week 25 as measured by Response Evaluation Criteria in Solid Tumors (RECIST) version 1.1 by blinded independent radiologic review (IRR). Key secondary endpoints included the objective response rate at Week 25 by IRR per tumor volume score (TVS), active range of motion (ROM) at Week 25, PROMIS physical function (PROMIS-PF) score, worst stiffness numeric rating scale (NRS) score at Week 25, EQ-visual analogue scale (EQ-VAS) score at Week 25, and greater than or equal to 30% reduction in Brief Pain Inventory (BPI) in worst pain and less than 30% increase in narcotic use (BPI-30) at Week 25. Other secondary endpoints included duration of response (DOR) and safety.
Eligibility Criteria: Eligible patients were aged ≥18 years with a histologically confirmed diagnosis of TGCT for which surgical resection would potentially cause worsening functional limitation or severe morbidity. Patients had at least 1 measurable lesion ≥2 cm using Response Evaluation Criteria in Solid Tumors version 1.1 (RECIST v1.1), as assessed from magnetic resonance imaging (MRI) by a central radiologist.
Patients were excluded for receiving previous systemic therapy targeting CSF1 or CSF1R including vimseltinib; previous therapy with imatinib and/or nilotinib was allowed. Patients who received any therapy for TGCT (including investigational therapy) during screening, had major surgery 14 days prior to the first dose of study drug, or participated in a non-TGCT investigational drug study within 30 days of screening were also excluded.
Tumor volume score (TVS) is a semiquantitative magnetic resonance imaging scoring system that describes tumor mass. It is based on 10% increments of the estimated volume of the maximally distended involved synovial cavity or tendon sheath. Scores ranged from 0 to 10, and a tumor that was equal in volume to that of a maximally distended synovial cavity or tendon sheath was scored a 10; a score of 0 indicated no evidence of a tumor.
Complete response denoted disappearance of all tumor(s). Partial response was at least a 50% reduction from baseline in TVS. Progressive disease was at least a 30% increase in TVS from baseline. Stable disease was neither a sufficient decrease to qualify for partial response nor sufficient increase to qualify for progressive disease, taking the nadir as a reference. Response was considered not evaluable if the TVS could not be assessed for reasons such as inadequate or missing imaging.
Active range of motion (ROM; in degrees) was assessed using a goniometer and was normalized using a reference standard provided by the American Medical Association to compute the relative active ROM. In joints where more than one motion was measured, the motion with the smallest relative ROM value (worst) was used for evaluating subsequent changes in relative active ROM.
Response for PROMIS-PF, worst stiffness NRS, and EQ-VAS was a change from baseline ≥3, ≤−2, and ≥7, respectively. BPI worst pain response was defined as a ≥30% reduction in worst pain without a ≥30% increase in narcotic analgesic use. […]

[2] = system: patients with TGCT not amenable to surgery; experiment: Phase 3 study of vimseltinib in patients with TGCT: safety (TEAEs, Part 1); assay type: in vivo, human
Description: as §1, §2
Vimseltinib was well-tolerated and the safety profile in the study was consistent with previously disclosed data. […] Patients with treatment-emergent adverse events (TEAEs) leading to treatment discontinuation was 5% in the vimseltinib arm. The table below lists TEAEs greater than 15% in either arm during Part 1 of the study.

[3] = 30 mg twice weekly, ITT N=83, Week 25
[4] = 30 mg twice weekly, ITT, Week 25
[5] = 30 mg twice weekly, n=83, Part 1

Cc1nc(-c2cnc(NC(C)C)n(C)c2=O)ccc1Oc1ccnc(-c2cnn(C)c2)c1 [Vimseltinib, 2-(isopropylamino)-3-methyl-5-(6-methyl-5-((2-(1-methyl-IH-pyrazol-4-yl)pyridin-4-yl)oxy)pyridin-2-yl)pyrimidin-4(3H)-one]
clinical benefit (CR+PR+SD), best percentage change in target lesions by IRR ([1]; 30 mg twice weekly, FIG. 7A): Nearly all patients receiving vimseltinib experienced clinical benefit | BPI-30 Response in Worst Pain [1, 3]: 40 (48) n (%) | CFB in EQ-VAS at Week 25, LS Mean [1, 3]: 13.5 | CFB in Worst Stiffness NRS at Week 25, LS Mean [1, 3]: −2.1 | CR by IRR per TVS [1, 3]: 4 (5%) n (%) | Complete Response (CR) by IRR per RECIST 1.1 [1, 3]: 4 (5%) n (%) | ORR at Week 25 by IRR per RECIST 1.1 [1, 3]: 33 (40%) n (%) | ORR at Week 25 by IRR per RECIST v1.1 [1, 3]: 40% | PR by IRR per TVS [1, 3]: 52 (63%) n (%) | Partial Response (PR) by IRR per RECIST 1.1 [1, 3]: 29 (35%) n (%) | Stable disease (SD) by IRR per RECIST 1.1 [1, 3]: 42 (51%) n (%) | CFB in EQ-VAS at Week 25, Difference in LS Mean vs placebo [1, 4]: 7.4 | CFB in Worst Stiffness NRS at Week 25, Difference in LS Mean vs placebo [1, 4]: −1.8 | Difference in BPI-30 Response in Worst Pain vs placebo (95% CI) [1, 4]: 26% and 26 (4, 42) % | Difference in ORR (vimseltinib vs placebo) by IRR per TVS [1, 4]: 67% | Difference in ORR (vimseltinib vs. placebo) by IRR per RECIST 1.1 [1, 4]: 40% | response rate in active ROM at Week 25 ([1]; 30 mg twice weekly, N=79): 48% | response rate in PROMIS-PF at Week 25 ([1]; 30 mg twice weekly, N=79, response = change from baseline ≥3): 43% | response rate in EQ-VAS at Week 25 ([1]; 30 mg twice weekly, N=79, response = change from baseline ≥7): 37% | difference in response rate in EQ-VAS vs placebo ([1]; 30 mg twice weekly, Week 25): 12% | difference in response rate in PROMIS-PF vs placebo ([1]; 30 mg twice weekly, Week 25): 18% | difference in response rate in Worst Stiffness NRS vs placebo ([1]; 30 mg twice weekly, Week 25): 24% | difference in response rate in active ROM vs placebo ([1]; 30 mg twice weekly, Week 25): 28% | median duration of response by IRR per RECIST v1.1 ([1]; 30 mg twice weekly, responders): not reached | median duration of response by IRR per TVS ([1]; 30 mg twice weekly, responders): not reached | response rate in Worst Stiffness NRS at Week 25 ([1]; 30 mg twice weekly, response = change from baseline ≤−2): 39% | BPI-30 response rate in Worst Pain at Week 25 ([1]; 30 mg twice weekly, ≥30% reduction in BPI worst pain NRS and <30% increase in narcotic use): 48% | functional and symptomatic improvement across active ROM, PROMIS-PF, worst stiffness NRS, BPI worst pain ([1]; Week 25, versus placebo, FIG. 8): More patients experienced improvement in multiple measures | tumor responses, updated results ([1]; after 6 months): sustained tumor responses | cholestatic hepatotoxicity ([2]; 30 mg twice weekly): no evidence of cholestatic hepatotoxicity | related SAE ([2]; 30 mg twice weekly): one related SAE of subcutaneous abscess | severe adverse events (SAE) per patient ([2]; 30 mg twice weekly): no severe adverse event (SAE) occurred in more than one patient | tolerability ([2]; 30 mg twice weekly): well-tolerated | TEAE AST increased, All Grades [2, 5]: 19 (23%) n (%) | TEAE AST increased, Grade 3-4, number of patients [2, 5]: 0 n | TEAE Arthralgia, All Grades [2, 5]: 16 (19%) n (%) | TEAE Arthralgia, Grade 3-4, number of patients [2, 5]: 0 n | TEAE Asthenia, All Grades [2, 5]: 22 (27%) n (%) | TEAE Asthenia, Grade 3-4, number of patients [2, 5]: 1 n | TEAE Asthenia, Grade 3-4, percent of patients [2, 5]: (1%) | TEAE CPK increased, All Grades [2, 5]: 20 (24%) n (%) | TEAE CPK increased, Grade 3-4, number of patients [2, 5]: 8 n | TEAE CPK increased, Grade 3-4, percent of patients [2, 5]: 10% | TEAE Diarrhea, All Grades [2, 5]: 10 (12%) n (%) | TEAE Diarrhea, Grade 3-4, number of patients [2, 5]: 0 n | TEAE Edema peripheral, All Grades [2, 5]: 15 (18%) n (%) | TEAE Edema peripheral, Grade 3-4, number of patients [2, 5]: 0 n | TEAE Face edema, All Grades [2, 5]: 26 (31%) n (%) | TEAE Face edema, Grade 3-4, number of patients [2, 5]: 1 n | TEAE Face edema, Grade 3-4, percent of patients [2, 5]: (1%) | TEAE Fatigue, All Grades [2, 5]: 27 (33%) n (%) | TEAE Fatigue, Grade 3-4, number of patients [2, 5]: 0 n | TEAE Headache, All Grades [2, 5]: 23 (28%) n (%) | TEAE Headache, Grade 3-4, number of patients [2, 5]: 1 n | TEAE Headache, Grade 3-4, percent of patients [2, 5]: (1%) | TEAE Hypertension, All Grades [2, 5]: 14 (17%) n (%) | TEAE Hypertension, Grade 3-4, number of patients [2, 5]: 4 n | TEAE Hypertension, Grade 3-4, percent of patients [2, 5]: (5%) | TEAE Nausea, All Grades [2, 5]: 21 (25%) n (%) | TEAE Nausea, Grade 3-4, number of patients [2, 5]: 0 n | TEAE Periorbital edema, All Grades [2, 5]: 37 (45%) n (%) | TEAE Periorbital edema, Grade 3-4, number of patients [2, 5]: 3 n | TEAE Periorbital edema, Grade 3-4, percent of patients [2, 5]: (4%) | TEAE Pruritus, All Grades [2, 5]: 24 (29%) n (%) | TEAE Pruritus, Grade 3-4, number of patients [2, 5]: 2 n | TEAE Pruritus, Grade 3-4, percent of patients [2, 5]: (2%) | TEAE Rash maculo-papular, All Grades [2, 5]: 16 (19%) n (%) | TEAE Rash maculo-papular, Grade 3-4, number of patients [2, 5]: 1 n | TEAE Rash maculo-papular, Grade 3-4, percent of patients [2, 5]: (1%) | TEAE Rash, All Grades [2, 5]: 16 (19%) n (%) | TEAE Rash, Grade 3-4, number of patients [2, 5]: 0 n | TEAE CPK increased, Grade 3-4, percent of patients ([2]; 30 mg twice weekly, n=83, Part 1, listed as Vimseltinb): (10%) | Patients with TEAEs leading to treatment discontinuation ([2]; vimseltinib arm): 5%
